Experimental data taken from patent publication US20260262643A1, “HERBICIDAL BENZOXAZINES” (FMC CORPORATION, priority 2022, published 2026).

Tests used:
galium = experiment: Test C postemergence; format: in vivo, Galium aparine; conditions: 10 days
Method in brief: (§1)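 Greenhouse herbicide screen, 10-day duration. Test chemicals in solvent/surfactant blend were sprayed onto soil at sowing (pre) or onto 2–10 cm seedlings at one to two leaves (post); injury scored visually against controls, 0 no effect to 100 complete control.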

soybean [1] = experiment: Test C postemergence; format: in vivo, Glycine max; conditions: 10 days
Method in brief: as §1

barnyardgrass [2] = experiment: Test D flooded paddy test; format: in vivo, Echinochloa crus-galli; conditions: 250 g ai/ha, applied to paddy water, visual rating after 13 to 14 days, scale 0 to 100 (0 no effect, 100 complete control)
Method in brief: (§2)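 Post-flood water application at the 2-leaf stage; 3 cm flood depth kept constant; visual control rating 0–100 after 13–14 days greenhouse growth.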

barnyardgrass [3] = experiment: Test C preemergence; format: in vivo, Echinochloa crusgalli; conditions: for Barnyardgrass plant response rating: preemergence, 0 to 100 scale (0 no effect, 100 complete control)
Method in brief: as §1

rice = experiment: Test D flooded paddy test; format: in vivo, Oryza sativa; conditions: 250 g ai/ha, applied to paddy water, visual rating after 13 to 14 days, scale 0 to 100 (0 no effect, 100 complete control)
Method in brief: as §2

soybean [4] = experiment: Test C preemergence; format: in vivo, Glycine max; conditions: for Soybean plant response rating: preemergence, 0 to 100 scale (0 no effect, 100 complete control)
Method in brief: as §1

sedge, umbrella = experiment: Test D flooded paddy test; format: in vivo, Cyperus difformis; conditions: 250 g ai/ha, applied to paddy water, visual rating after 13 to 14 days, scale 0 to 100 (0 no effect, 100 complete control)
Method in brief: as §2

wheat [5] = experiment: Test C postemergence; format: in vivo, Triticum aestivum; conditions: 10 days
Method in brief: as §1

oat, wild = experiment: Test C postemergence; format: in vivo, Avena fatua; conditions: 10 days
Method in brief: as §1

pigweed, palmer [6] = experiment: Test C preemergence; format: in vivo, Amaranthus palmeri; conditions: for Pigweed, Palmer plant response rating: preemergence, 0 to 100 scale (0 no effect, 100 complete control)
Method in brief: as §1

ragweed [7] = experiment: Test C postemergence; format: in vivo, Ambrosia artemisiifolia; conditions: 10 days
Method in brief: as §1

horseweed = experiment: Test C postemergence; format: in vivo, Erigeron canadensis; conditions: postemergence, 10 days
Method in brief: as §1

kochia [8] = experiment: Test C preemergence; format: in vivo, Bassia scoparia; conditions: for Kochia plant response rating: preemergence, 0 to 100 scale (0 no effect, 100 complete control)
Method in brief: as §1

wheat [9] = experiment: Test C preemergence; format: in vivo, Triticum aestivum; conditions: for Wheat plant response rating: preemergence, 0 to 100 scale (0 no effect, 100 complete control)
Method in brief: as §1

ragweed [10] = experiment: Test C preemergence; format: in vivo, Ambrosia artemisiifolia; conditions: for Ragweed plant response rating: preemergence, 0 to 100 scale (0 no effect, 100 complete control)
Method in brief: as §1

ducksalad = experiment: Test D flooded paddy test; format: in vivo, Heteranthera limosa; conditions: 250 g ai/ha, applied to paddy water, visual rating after 13 to 14 days, scale 0 to 100 (0 no effect, 100 complete control)
Method in brief: as §2

corn [11] = experiment: Test C preemergence; format: in vivo, Zea mays; conditions: for Corn plant response rating: preemergence, 0 to 100 scale (0 no effect, 100 complete control)
Method in brief: as §1

green foxtail [12] = experiment: Test C postemergence; format: in vivo, Setaria viridis; conditions: 10 days
Method in brief: as §1

ryegrass, Italian [13] = experiment: Test C postemergence; format: in vivo, Lolium multiflorum; conditions: 10 days
Method in brief: as §1

corn [14] = experiment: Test C postemergence; format: in vivo, Zea mays; conditions: 10 days
Method in brief: as §1

ryegrass, Italian [15] = experiment: Test C preemergence; format: in vivo, Lolium multiflorum; conditions: for Ryegrass, Italian plant response rating: preemergence, 0 to 100 scale (0 no effect, 100 complete control)
Method in brief: as §1

barnyardgrass [16] = experiment: Test C postemergence; format: in vivo, Echinochloa crusgalli; conditions: 10 days
Method in brief: as §1

kochia [17] = experiment: Test C postemergence; format: in vivo, Bassia scoparia; conditions: 10 days
Method in brief: as §1

blackgrass [18] = experiment: Test C preemergence; format: in vivo, Alopecurus myosuroides; conditions: for Blackgrass plant response rating: preemergence, 0 to 100 scale (0 no effect, 100 complete control)
Method in brief: as §1

green foxtail [19] = experiment: Test C preemergence; format: in vivo, Setaria viridis; conditions: for Foxtail, Green plant response rating: preemergence, 0 to 100 scale (0 no effect, 100 complete control)
Method in brief: as §1

pigweed, palmer [20] = experiment: Test C postemergence; format: in vivo, Amaranthus palmeri; conditions: 10 days
Method in brief: as §1

blackgrass [21] = experiment: Test C postemergence; format: in vivo, Alopecurus myosuroides; conditions: 10 days
Method in brief: as §1

[22] = 500 g ai/ha, postemergence, 0 to 100 scale (0 no effect, 100 complete control)
[23] = Postemergence, 125 g ai/ha, 0 to 100 scale (0 no effect, 100 complete control)
[24] = Preemergence, 125 g ai/ha, 0 to 100 scale, 0 no effect, 100 complete control
[25] = 500 g ai/ha, 0 to 100 scale (0 no effect, 100 complete control)
[26] = 125 g ai/ha, postemergence, 0 to 100 scale, 0 no effect, 100 complete control

With CC(=O)c1ncn(-c2ccc(C)c(C(=O)N3C[C@H](C)Oc4c(Cl)cccc43)c2)n1 [Compound 360] the “Plant response rating, Galium” value (galium; [22]) was 100, the “Plant response rating, Galium” value (galium; [23]) was 100 and the “Plant response rating, Soybean” value (soybean [1]; [22]) was 100. For the same compound, the “Plant response rating, Soybean” value (soybean [1]; [23]) was 100, the “Plant response rating, Barnyardgrass (Flood)” value (barnyardgrass [2]) was 45 and the “Barnyardgrass plant response rating” value (barnyardgrass [3]; 500 g ai/ha) was 100. The “Plant response rating, Barnyardgrass” value (barnyardgrass [3]; [24]) was 100, the “Plant response rating, Rice (Flood)” value (rice) was 15 and the “Soybean plant response rating” value (soybean [4]; 500 g ai/ha) was 100. For the same compound, the “Plant response rating, Soybean” value (soybean [4]; [24]) was 80, the “Plant response rating, Sedge, Umbrella (Flood)” value (sedge, umbrella) was 90 and the “Plant response rating, Wheat” value (wheat [5]; [22]) was 50. For the same compound, the “Plant response rating, Wheat” value (wheat [5]; [23]) was 30, the “Plant response rating, Oat, Wild” value (oat, wild; [22]) was 90 and the “Plant response rating, Oat, Wild” value (oat, wild; [23]) was 30. For the same compound, the “Pigweed, Palmer plant response rating” value (pigweed, palmer [6]; 500 g ai/ha) was 90, the “Plant response rating, Pigweed, Palmer” value (pigweed, palmer [6]; [24]) was 30 and the “Plant response rating, Ragweed” value (ragweed [7]; [22]) was 80. For the same compound, the “Plant response rating, Ragweed” value (ragweed [7]; [23]) was 50, the “Plant response rating, Horseweed” value (horseweed; [25]) was 30 and the “Kochia plant response rating” value (kochia [8]; 500 g ai/ha) was 80. The “Plant response rating, Kochia” value (kochia [8]; [24]) was 20, the “Wheat plant response rating” value (wheat [9]; 500 g ai/ha) was 80 and the “Plant response rating, Wheat” value (wheat [9]; [24]) was 40. For the same compound, the “Ragweed plant response rating” value (ragweed [10]; 500 g ai/ha) was 100, the “Plant response rating, Ragweed” value (ragweed [10]; [24]) was 80 and the “Plant response rating, Ducksalad (Flood)” value (ducksalad) was 100. The “Corn plant response rating” value (corn [11]; 500 g ai/ha) was 70, the “Plant response rating, Corn” value (corn [11]; [24]) was 60 and the “Plant response rating, Foxtail, Green” value (green foxtail [12]; [22]) was 90. The “Plant response rating, Foxtail, Green” value (green foxtail [12]; [23]) was 90, the “Plant response rating, Ryegrass, Italian” value (ryegrass, Italian [13]; [22]) was 100 and the “Plant response rating, Ryegrass, Italian” value (ryegrass, Italian [13]; [23]) was 70. The “Plant response rating, Corn” value (corn [14]; [22]) was 90, the “Plant response rating, Corn” value (corn [14]; [23]) was 90 and the “Ryegrass, Italian plant response rating” value (ryegrass, Italian [15]; 500 g ai/ha) was 90. The “Plant response rating, Ryegrass, Italian” value (ryegrass, Italian [15]; [24]) was 80, the “Plant response rating, Barnyardgrass” value (barnyardgrass [16]; [22]) was 100 and the “Plant response rating, Barnyardgrass” value (barnyardgrass [16]; [23]) was 90. The “Plant response rating, Kochia” value (kochia [17]; [22]) was 70, the “Plant response rating, Kochia” value (kochia [17]; [23]) was 20 and the “Blackgrass plant response rating” value (blackgrass [18]; 500 g ai/ha) was 100. The “Plant response rating, Blackgrass” value (blackgrass [18]; [24]) was 80, the “Foxtail, Green plant response rating” value (green foxtail [19]; 500 g ai/ha) was 100 and the “Plant response rating, Foxtail, Green” value (green foxtail [19]; [24]) was 100. For the same compound, the “Plant response rating, Pigweed, Palmer” value (pigweed, palmer [20]; [22]) was 90, the “Plant response rating, Pigweed, Palmer” value (pigweed, palmer [20]; [23]) was 60 and the “Plant response rating, Blackgrass” value (blackgrass [21]; [22]) was 90. For the same compound, the “Plant response rating, Blackgrass” value (blackgrass [21]; [23]) was 80.
In the case of CCOCc1ncn(-c2ccc(C)c(C(=O)N3C[C@H](C)Oc4c(Cl)cccc43)c2)n1 [Compound 294], the “Plant response rating, Galium” value (galium; [26]) is reported as 100, the “Plant response rating, Galium” value (galium; [22]) is reported as 90 and the “Plant response rating, Soybean” value (soybean [1]; [26]) is reported as 90. The “Plant response rating, Soybean” value (soybean [1]; [22]) was 100, the “Plant response rating, Barnyardgrass (Flood)” value (barnyardgrass [2]) was 0 and the “Barnyardgrass plant response rating” value (barnyardgrass [3]; 500 g ai/ha) was 100. For the same compound, the “Barnyardgrass plant response rating” value (barnyardgrass [3]; Test C, 125 g ai/ha) was 40, the “Plant response rating, Rice (Flood)” value (rice) was 0 and the “Soybean plant response rating” value (soybean [4]; 500 g ai/ha) was 90. The “Soybean plant response rating” value (soybean [4]; Test C, 125 g ai/ha) was 20, the “Plant response rating, Sedge, Umbrella (Flood)” value (sedge, umbrella) was 0 and the “Plant response rating, Wheat” value (wheat [5]; [26]) was 10. The “Plant response rating, Wheat” value (wheat [5]; [22]) was 40, the “Plant response rating, Oat, Wild” value (oat, wild; [26]) was 10 and the “Plant response rating, Oat, Wild” value (oat, wild; [22]) was 10. For the same compound, the “Pigweed, Palmer plant response rating” value (pigweed, palmer [6]; 500 g ai/ha) was 90, the “Pigweed, Palmer plant response rating” value (pigweed, palmer [6]; Test C, 125 g ai/ha) was 60 and the “Plant response rating, Ragweed” value (ragweed [7]; [26]) was 50. The “Plant response rating, Ragweed” value (ragweed [7]; [22]) was 70, the “Plant response rating, Horseweed” value (horseweed; 125 g ai/ha, 0 to 100 scale, 0 no effect, 100 complete control) was 30 and the “Plant response rating, Horseweed” value (horseweed; [25]) was 70. The “Kochia plant response rating” value (kochia [8]; 500 g ai/ha) was 80, the “Kochia plant response rating” value (kochia [8]; Test C, 125 g ai/ha) was 20 and the “Wheat plant response rating” value (wheat [9]; 500 g ai/ha) was 20. The “Wheat plant response rating” value (wheat [9]; Test C, 125 g ai/ha) was 0, the “Ragweed plant response rating” value (ragweed [10]; 500 g ai/ha) was 0 and the “Ragweed plant response rating” value (ragweed [10]; Test C, 125 g ai/ha) was 0. For the same compound, the “Plant response rating, Ducksalad (Flood)” value (ducksalad) was 0, the “Corn plant response rating” value (corn [11]; 500 g ai/ha) was 50 and the “Corn plant response rating” value (corn [11]; Test C, 125 g ai/ha) was 50. The “Plant response rating, Foxtail, Green” value (green foxtail [12]; [26]) was 10, the “Plant response rating, Foxtail, Green” value (green foxtail [12]; [22]) was 70 and the “Plant response rating, Ryegrass, Italian” value (ryegrass, Italian [13]; [26]) was 40. The “Plant response rating, Ryegrass, Italian” value (ryegrass, Italian [13]; [22]) was 90, the “Plant response rating, Corn” value (corn [14]; [26]) was 30 and the “Plant response rating, Corn” value (corn [14]; [22]) was 90. The “Ryegrass, Italian plant response rating” value (ryegrass, Italian [15]; 500 g ai/ha) was 100, the “Ryegrass, Italian plant response rating” value (ryegrass, Italian [15]; Test C, 125 g ai/ha) was 90 and the “Plant response rating, Barnyardgrass” value (barnyardgrass [16]; [26]) was 10. For the same compound, the “Plant response rating, Barnyardgrass” value (barnyardgrass [16]; [22]) was 50, the “Plant response rating, Kochia” value (kochia [17]; [26]) was 60 and the “Plant response rating, Kochia” value (kochia [17]; [22]) was 60. The “Blackgrass plant response rating” value (blackgrass [18]; 500 g ai/ha) was 90, the “Blackgrass plant response rating” value (blackgrass [18]; Test C, 125 g ai/ha) was 70 and the “Foxtail, Green plant response rating” value (green foxtail [19]; 500 g ai/ha) was 100. For the same compound, the “Foxtail, Green plant response rating” value (green foxtail [19]; Test C, 125 g ai/ha) was 90, the “Plant response rating, Pigweed, Palmer” value (pigweed, palmer [20]; [26]) was 40 and the “Plant response rating, Pigweed, Palmer” value (pigweed, palmer [20]; [22]) was 60. The “Plant response rating, Blackgrass” value (blackgrass [21]; [26]) was 30 and the “Plant response rating, Blackgrass” value (blackgrass [21]; [22]) was 80.
